The test system of data set [1] is β-tubulin. As to the kind of experiment: Protein alkylation by [urea-14C]-4-tBCEU in MDA-MB-231 cells (autoradiography, immunoblot, kinetics). The data set is classed as cell-based, human. The procedure:
FIG. 3. Protein alkylation induced by treatment with [urea-^14C]-4-tBCEU. (A) Post-nuclei protein extracts from MDA-MB-231 cells incubated with 30 or 100 μM of [urea-^14C]-4-tBCEU for 12 and 24 h. […] The protein extracts were analyzed by SDS-PAGE. […] Data are representative of four different experiments. The arrow points to β-tubulin.
FIG. 5. Kinetics of β-tubulin alkylation and microtubule disruption induced by [urea-^14C]-4-tBCEU. Exponentially growing MDA-MB231 cells were incubated with 30 μM [urea-^14C]-4-tBCEU for 0, 1, 4, 8, 12, 18, 24 and 48 h. (A) Free tubulin and microtubule fractions were isolated and analyzed by Western blotting; (B) [urea-^14C]-4-tBCEU-labeled proteins were visualized by autoradiography. Data are representative of three different experiments.
Cells (˜5×10^6) were incubated with 30 or 100 μM [^14C]-tBCEU for 12 or 24 h and then washed with PBS and harvested by scraping in lysis buffer (5 mM Hepes pH 7.4, 1 mM MgCl2, 10 mM KCl, 1 mM CaCl2, 1 mM PMSF, 1 mM benzamidine and 1 mM aprotinin). Cell lysates were homogenized using a tissue grinder and the final sucrose concentration of each sample was adjusted to 250 mM. Samples were centrifuged at 600×g for 10 min at 4° C. to isolate the post-nuclear supernatant. The pellets, containing nuclei and intact cells, were discarded and the post-nuclear supernatant was recentrifuged at 90,000 rpm using a Rotor TLA-100.1 in a Beckman TL-100 ultracentrifuge for 30 min to separate the cytosolic fraction (C) from the insoluble fraction (M) containing the membrane components and mitochondria. One volume of 2× Laemmli sample buffer was then added to the supernatant (C) and the pellet (M) was resuspended in 200 μl of Laemmli sample buffer. Samples were boiled for 5 min and kept at −20° C. until analysis.
Samples (1×10^5 cells) were analyzed by 10% SDS-PAGE using the Laemmli system (15). Membranes were then incubated with PBSMT (PBS, pH 7.4, 5% fat-free dry milk and 0.1% Tween-20) for 1 h at room temperature, and then with 1:500 monoclonal anti-β-tubulin (clone TUB 2.1, Sigma) or 1:400 anti (clone no. SDL.3D10, Sigma) for 1 h. […]

The target in a further data set is T1, βIII-tubulin (Homo sapiens, UniProt Q13509).
T1 construct: SK—N—SH cells, which express significant amounts of neuronal-specific βIII-tubulin; endogenous in cells; host or cells: SK-N-SH (ATCC HTB-11)
T1 sequence (Q13509 whole entry): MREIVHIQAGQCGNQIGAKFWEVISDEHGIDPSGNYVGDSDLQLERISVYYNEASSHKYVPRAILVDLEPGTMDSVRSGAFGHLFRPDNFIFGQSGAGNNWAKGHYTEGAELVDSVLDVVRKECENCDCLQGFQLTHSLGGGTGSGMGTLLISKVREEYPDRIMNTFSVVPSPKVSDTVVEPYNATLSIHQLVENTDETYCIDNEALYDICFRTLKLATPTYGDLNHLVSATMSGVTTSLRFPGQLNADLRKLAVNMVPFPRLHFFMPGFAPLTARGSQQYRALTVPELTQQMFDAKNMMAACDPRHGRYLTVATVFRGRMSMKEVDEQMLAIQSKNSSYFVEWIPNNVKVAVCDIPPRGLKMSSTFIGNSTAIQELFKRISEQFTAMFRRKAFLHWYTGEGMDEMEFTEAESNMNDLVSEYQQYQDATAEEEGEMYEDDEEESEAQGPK
T1 sequence (P68363 whole entry partner): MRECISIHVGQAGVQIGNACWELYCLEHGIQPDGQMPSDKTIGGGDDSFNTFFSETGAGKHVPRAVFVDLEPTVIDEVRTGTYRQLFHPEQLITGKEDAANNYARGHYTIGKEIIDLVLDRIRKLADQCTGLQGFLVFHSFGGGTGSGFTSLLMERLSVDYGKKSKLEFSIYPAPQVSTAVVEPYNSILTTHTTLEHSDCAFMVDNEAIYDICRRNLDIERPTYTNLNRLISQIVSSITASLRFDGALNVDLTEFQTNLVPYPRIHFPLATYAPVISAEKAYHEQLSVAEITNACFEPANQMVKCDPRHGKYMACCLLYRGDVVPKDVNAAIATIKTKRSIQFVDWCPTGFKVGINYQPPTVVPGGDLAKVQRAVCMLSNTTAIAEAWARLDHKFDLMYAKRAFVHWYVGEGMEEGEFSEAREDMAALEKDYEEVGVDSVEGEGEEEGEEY
Put plainly: Alkylation of βIII-tubulin in SK-N-SH cells. Type of data set: cell-based. On the procedure: FIG. 7. Localization of the site of alkylation by CEU on β-tubulin. Exponentially growing SK—N—SH cells were incubated in the absence or the presence of 30 μM and 100 μM [urea-^14C]-4-tBCEU for 24 h and 48 h, respectively. Total protein extracts were separated electrophoretically on 10% polyacrylamide gels. […] Results are representative of two independent experiments.
(§1) Human breast carcinoma cell line, MDA-MB-231, was obtained from the American Type Culture Collection (ATCC HTB-26; Bethesda, Md.). MDA-MB-231 cells were grown in RPMI 1640 medium supplemented with 10% bovine calf serum (Hyclone, Road Logan, Utah). Wild-type Chinese Hamster Ovary cells (CHO-10001) (7), colchicine- and vinblastine-resistant (CHO-VV 3-2) (8) and taxol-resistant (CHO-TAX 5-6) cells (9) were generously provided by Dr. Fernando Cabral (University of Texas Medical School, Houston, Tex.). These cells were cultured in RPMI 1640 containing 10% fetal bovine serum. SK—N—SH human neuroblastoma cells, (ATCC HTB-11; Bethesda, Md.) were cultured in MEM medium supplemented with 2 mM L-glutamine, 1.5 g/liter sodium bicarbonate, 0.1 mM non-essential amino acids, 1 mM sodium pyruvate and 10% fetal bovine serum. Cells were cultured in a humidified atmosphere at 37° C. in 5% CO2.
Samples (1×10^5 cells) were analyzed by 10% SDS-PAGE using the Laemmli system (15). […]

Data set [2] concerns MDA-MB-231 cells. As to the kind of experiment: cells. The data set is classed as cell-based, human. Conditions: for IC50: MTT assay, mean ± SD, read-out: IC50 (μM) MDA-MB-231. The procedure:
as §1
(§2) Cytotoxicity was assessed using the MTT assay (3-(4,5-dimethylthiazol-2-yl)-2,5-diphenyltetrazolium bromide) as described by Carmichael et al. (12).
Background: Tetrazolium assays rely on reduction of a dye to a coloured formazan, in cell work by metabolically active cells.

Data set [3] in a line: Kinetics of alkylation of 4-(4-nitrobenzyl)pyridine (colorimetric assay). The data set is classed as physicochemical. Conditions: 80° C., pH 4.3, absorbance at 570 nm, linear regression, mean ± SD. The procedure:
The rate constant of alkylation (K′) of CEU derivatives and chlorambucil was evaluated by a […] assay as described by Bardos et al (13). Briefly, 1 ml of a 10% (v/v) solution of 4-(4-nitrobenzyl)pyridine in ethanol and 1 ml of 50 mM sodium acetate (pH 4.3) were added to an ethanol solution (95%) containing 400 nmol per ml of either chlorambucil or CEU and heated to 80° C. in a shaking water bath for 60, 90, 120 or 150 min. The reaction was stopped by cooling the mixtures on ice for 5 min. Then, 1.5 ml of 0.1 M KOH: ethanol (1:2, v/v) were added to the reaction mixture. Samples were vortexed for 12 sec and set aside for 2.5 min prior to reading the absorbance at 570 nm. The values were compared with those obtained using a blank sample containing all reagents except the alkylating agent.

Data set [4] concerns CHO 10001 cells (wild-type). Put plainly: MTT cytotoxicity on wild-type CHO cells. Conditions: Cricetulus griseus, CHO10001, 120 h, read-out: IC50 CHO 10001. Type of data set: cell-based, Chinese hamster. On the procedure: as §1, with “Wild-type Chinese Hamster Ovary cells (CHO-10001) (7), colchicine- and vinblastine-resistant (CHO-VV 3-2) (8) and taxol-resistant (CHO-TAX 5-6) cells (9) were generously provided by Dr. Fernando Cabral (University of Texas Medical School, Houston, Tex.).” left out
as §2
(§3) The cytotoxicity of 4-tBCEU, 4-iPCEU and 4-sBCEU in two CHO cell lines having differential sensitivity to antmicrotubule agents was evaluated. These cell lines are derived from parental CHO-10001 cells and express mutated tubulins.

A further data set relates to CHO TAX 5-6 cells. As to the kind of experiment: MTT cytotoxicity on taxol-resistant CHO cells expressing mutated tubulin. Conditions: Cricetulus griseus, CHO-TAX 5-6, 120 h, read-out: IC50 CHO TAX 5-6. Type of data set: cell-based, Chinese hamster. The procedure: as §1, with “Wild-type Chinese Hamster Ovary cells (CHO-10001) (7), colchicine- and vinblastine-resistant (CHO-VV 3-2) (8) and taxol-resistant (CHO-TAX 5-6) cells (9) were generously provided by Dr. Fernando Cabral (University of Texas Medical School, Houston, Tex.).” left out
as §2, §3

For another data set, the system named is CHO VV 3-2 cells. As to the kind of experiment: MTT cytotoxicity on vinblastine- and colchicine-resistant CHO cells expressing mutated tubulin. Conditions: Cricetulus griseus, CHO-VV 3-2, 120 h, read-out: IC50 CHO VV 3-2. The data set is classed as cell-based, Chinese hamster. The procedure: as §1, with “Wild-type Chinese Hamster Ovary cells (CHO-10001) (7), colchicine- and vinblastine-resistant (CHO-VV 3-2) (8) and taxol-resistant (CHO-TAX 5-6) cells (9) were generously provided by Dr. Fernando Cabral (University of Texas Medical School, Houston, Tex.).” left out
as §2, §3

For data set [5], the system named is MDA-MB-231 cells. Put plainly: Cell cycle analysis by propidium iodide flow cytometry. Type of data set: cell-based, human. Conditions: CEU derivatives at 30 μM, 24 h; flow cytometry. On the procedure: FIG. 1. Effect of CEU derivatives on cell cycle. Exponentially growing MDA-MB-231 cells were incubated in the absence or presence of 30 μM of either 4-tBCEU, 4-iPCEU or 4-sBCEU for 24 and 48 h, respectively, at 37° C. The cell cycle was evaluated using propidium iodide staining and flow cytometric analysis. Data are representative of three independent experiments.
Following incubation of MDA-MB-231 cells with 4-tBCEU, 4-iPCEU or 4-sBCEU, the cells were harvested, resuspended in 1 ml PBS and fixed by the addition of 2.4 ml of ice cold anhydrous ethanol. Then, 5×10^5 cells from each sample were centrifuged for 3 min at 1000×g. Cell pellets were resuspended in PBS containing 50 μg/ml of PI and 40 U/ml of ribonuclease A (Boehringer Mannheim, Laval, Calif.). Mixtures were incubated at room temperature for 30 min and cell cycle distribution was analyzed using an Epics Elite ESP flow cytometer (Coulter Corporation, Miami, Fla., USA).
The effect of CEU, namely 4-tBCEU, 4-PCEU and 4-sBCEU, on the cell cycle was analyzed. To this end, exponentially growing MDA-MB-231 cells were treated with 30 μM 4-tBCEU, 4-iPCEU or 4-sBCEU for 24 or 48 h followed by an evaluation of cell cycle distribution by flow cytometry using propidium iodide, a fluorescent DNA dye. […] Induction of mitosis blockage in prophase by CEU derivatives was confirmed by mitotic index analysis as described by Drouin (22).

Data set [6] relates to β-tubulin. Put plainly: Separation of soluble and polymerized tubulins, Western blot of β-tubulin. The data set is classed as cell-based, human. Conditions: MDA-MB-231 cells, 30 μM, 24 h and 48 h. The procedure: FIG. 2. Effects of CEU derivatives on microtubule depolymerization. Exponentially growing MDA-MB-231 cells were incubated in the absence or the presence of 30 μM of CEU derivatives including (A) 4-tBCEU, 4-iPCEU or 4-sBCEU for 24 and 48 h respectively; (B) 2-ECEU, 3-ECEU or 4-ECEU for 24 and 48 h; and (C) 4-tBEU, 4-iPEU, 4-sBEU, 4-tBCPU, CEU or 4-methoxyCEU for 48 h. Free tubulin and microtubule fractions were isolated and analyzed by Western blot. Data are representative of three different experiments.
Separation of soluble and polymerized tubulins from MDA-MB231 cells was carried out as described by Minotti et al. (14) with minor modifications. Briefly, after drug exposure, about 5×10^6 cells in 100-mm petri dishes were washed with PBS at 37° C. and harvested in 3 ml of PBS containing 0.4 μg/ml of taxol using a rubber policeman.
Cells were centrifuged and lysed using 250 μl of microtubule-stabilizing buffer (20 mM Tris-HCl, pH 6.8, 140 mM NaCl, 1 mM MgCl2, 2 mM EDTA, 0.5% Nonidet P-40 and 0.4 μg/ml taxol), and then transferred to 1.5 ml microcentrifuge tubes. Samples were centrifuged at 12,000×g for 10 min at 4° C. and the supernatants containing soluble tubulin were placed in separate microcentrifuge tubes containing 250 μl of 2× Laemmli sample buffer (15). Pellets containing the polymerized tubulin were resuspended in 250 μl of water, followed by two freeze/thawing cycles, and the addition of 250 μl of 2× Laemmli sample buffer. Samples were analyzed by SDS-PAGE and immunoassay was performed as described below.
Samples (1×10^5 cells) were analyzed by 10% SDS-PAGE using the Laemmli system (15). Membranes were then incubated with PBSMT (PBS, pH 7.4, 5% fat-free dry milk and 0.1% Tween-20) for 1 h at room temperature, and then with 1:500 monoclonal anti-β-tubulin (clone TUB 2.1, Sigma) or 1:400 anti (clone no. SDL.3D10, Sigma) for 1 h. […] Membranes were washed with PBSMT and incubated with 1:2500 peroxidase-conjugated anti-mouse immunoglobulin (Amersham Canada, Oakville, Canada) in PBSMT for 30 min. Detection of the immunoblot was carried out with the ECL Western blotting detection reagent kit (Amersham Canada, Oakville, Canada).
Background: Immunoblotting shows a protein as a band on a membrane.

Another data set deals with α-tubulin. As to the kind of experiment: Western blot for α-tubulin modification. The data set is classed as cell-based, human. Conditions: data not shown.

Entries after “also recorded” stand apart in the source; their conditions may differ. Like-named read-outs stand apart in the source and are kept apart here. Marks after values point to notes of the source that are not given here.

As a reminder, the IC50 is the concentration that inhibits the measured activity by half.

On to `CC(C)(C)c1ccc(N[14C](=O)NCCCl)cc1` [[urea-^14C]-4-tBCEU], for which the “incubation time at which modified β-tubulin appears (immunoblot)” value in the data set on β-tubulin [1] (30 μM (FIG. 5A)) is on record as 12 h. Further, the “incubation time at which 14C-labeled modified β-tubulin appears (autoradiography)” value with β-tubulin [1] (30 μM (FIG. 5B)) fell in the range of 1 to 4 h. In the data set with β-tubulin [1] (30 μM, Western blot (FIG. 5A)), the “incubation time to complete microtubule disruption” value lay in the range of 8 to 12 h. For the same compound, the “alkylation of βIII-tubulin” value at βIII-tubulin (30 and 100 μM, 24 h and 48 h, autoradiography) is reported as “βIII-tubulin is not alkylated”. Moreover, the “migration on SDS-PAGE of βIII-tubulin” value on βIII-tubulin (Western blot (FIG. 7A)) is on record as “does not alter migration of the β-tubulin on SDS-PAGE”.
Take `CC(C)(C)c1ccc(NC(=O)NCCCl)cc1` [Example 4-tBCEU, 4-tert-butyl[3-(2-chloroethyl)ureido]benzene]: the “cytotoxicity in words (active / inactive CEU)” value in the data set with MDA-MB-231 cells [2] was “active”. Moreover, the IC50 worked out at 4 µM in the data set on MDA-MB-231 cells [2] (Homo sapiens, MDA-MB-231, concentration inhibiting 50% of cell growth); 4.6 ± 0.3 µM in the data set with MDA-MB-231 cells [2] (concentration inhibiting 50% of cell growth); 11.6 ± 0.7 µM in [4]; 4.6 ± 0.3 µM with CHO TAX 5-6 cells; 21.3 ± 1.1 µM in the data set with CHO VV 3-2 cells. The “K′ (constant of alkylation of 4-(4-nitrobenzyl)pyridine)” value in [3] is on record as 3.1 ± 0.3^a. The “accumulation of cells in G2+M” value in the data set with MDA-MB-231 cells [5] is given as “significant accumulation of cells in the G2+M”. Moreover, the microtubule depolymerization entry in the data set with β-tubulin [6] was “complete microtubule depolymerization”. Moreover, the “formation of modified β-tubulin (second immunoreactive band of lower Mr)” value in the data set with β-tubulin [6] (free tubulin fraction) was “second immunoreactive band; also recorded: induced in a dose-dependent manner”. For the same compound, the α-tubulin modification entry in the data set with α-tubulin is on record as “no electrophoretic evidence for α-tubulin modification”.
